Data: patent publication US7235548B2, “Compounds and their use as positive AMPA receptor modulators” (NeuroSearch A/S, priority 1998, dated 2007)

System: AMPA receptor
Assay: Voltage clamp (whole cell patch clamp), current induced by AMPA in cultured mouse neocortical neurons
Assay type: cell-based
Settings: for reversibility of the potentiation: after wash out of the compound; for potentiation of the current induced by application of 30 μM AMPA: holding voltage −60 mV
Procedure: Experiments were performed in voltage clamp using conventional whole cell patch clamp methods (Hamill et al., 1981), essentially as described previously (Mathiesen et al., 1998). The following salt solutions were used (mM): NaCl (140), KCl (4), CaCl2 (2), MgCl2 (1), Sucrose (30), Tetrodotoxin (0.0003), Bicuculline Methiodide (0.005) and HEPES (10, pH 7.4). Intracellular solution (mM): CsCl (120), CsF (20), MgCl2 (2), EGTA (10), HEPES (10, pH=7.2).
Mouse neocortical neurons were cultured essentially as described by Drejer et al. (1987). Briefly, the forebrains from embryonic (E17) NMRI mice were removed under sterile conditions. The tissue was chopped in 0.4 mm cubes and the triturated with trypsin (12.5 μg/ml) and DNAse (2.5 μg/ml), 15 min, 37° C. The cells were suspended at a concentration of 1×10^6 cells/ml in a slightly modified DMEM which contained horse serum (10% (v/v)), penicillin (333 U/ml), paraaminobenzoic acid (1 mg/ml), L-glutamine (0.5 mM), insulin (0.08 U/ml) and KCl (23.8 mM). The cell suspension was subsequently inoculated into poly-L-lysine coated 35 mm Petri dishes (2 ml/dish). Glass coverslips (3.5 mm) were placed in the dishes before coating. After 24 hr in culture, the medium was replaced by freshly made medium containing 1% N2 supplement instead of serum.
The cells were kept in culture for 7–14 days at 37° C. (5% CO2/95% O2) before experiments were carried out.
Electronics, programs and data acquisition: The amplifier used was the EPC-9 (HEKA-electronics, Lambrect, Germany) run by a Power Macintosh G3 computer via an ITC-16 interface. Experimental conditions were set with the Pulse-software accompanying the amplifier. Data were low pass filtered and sampled directly to hard-disk at a rate of 3 times the cut-off frequency.
Pipettes and electrodes: Pipettes were pulled from borosilicate glass (Modulohm, Copenhagen, Denmark) using a horizontal electrode puller (Zeitz-Instrumente, Augsburg, Germany). The pipette resistances were 1.7–2.4 MW in the salt solutions used in these experiments. The pipette electrode was a chloridized silver wire, and the reference was a silverchloride pellet electrode (In Vivo Metric, Healdsburg, USA) fixed to the experimental chamber. The electrodes were zeroed with the open pipette in the bath just prior to sealing.
Experimental procedure: Coverslips were transferred to a […] experimental chamber mounted on the stage of an inverted microscope (IMT-2, Olympus) supplied with Nomarski optics. The neurons were continuously superfused with extracellular saline at a rate of 2.5 ml/min. After giga-seal formation (1–5 GW, success-rate≈90%) the whole cell configuration was attained by suction.
The cells were held at a holding voltage of −60 mV and at the start of each experiment the current was continuously measured for at least 30 sec to ensure a stable leak current. AMPA-containing solutions were delivered to the chamber through a custom-made gravity-driven flowpipe, the tip of which was placed approximately 50 μm from the cell. Application was triggered when the tubing connected to the flow pipe was compressed by a valve controlled by the Pulse-software. AMPA (30 μM) was applied for 1 sec every 45 sec. After obtainment of responses of a repeatable amplitude the compound to be tested was included in both the chamber and in the AMPA-containing solution. The compound was present until responses of a new repeatable was obtained.
The sample interval in all experiments was 310 μsec.
All experiments were performed at room temperature (20–25° C.).

Structure (SMILES)	reversibility of the potentiation	potentiation of the current induced by application of 30 μM AMPA (compound 10 μM)	persistence of the effect after wash out (compound 3 μM)	potentiation of the current induced by application of 30 μM AMPA (compound 3 μM)	concentration dependence of the effect (FIG. 8)
Cc1cc2c(cc1S(=O)(=O)N1CCOCC1)S(=O)(=O)NC(C1CCCCC1)N2 (centres unmarked) [Compound 115, 3-Cyclohexyl-6-methyl-7-morpholinosulfonyl-1,2,3,4-tetrahydro-1,2,4-benzothiadiazine-1,1-dioxide]	reversible	potentiated	–	–	–
O=S1(=O)NC(C2CCCCC2)Nc2ccc(S(=O)(=O)N3CCOCC3)cc21 (centres unmarked) [Compound 63, 3-Cyclohexyl-7-morpholinosulfonyl-1,2,3,4-tetrahydro-1,2,4-benzothiadiazine-1,1-dioxide]	reversible	–	persits for several minutes after wash out	potentiated	–
Cc1cc2c(cc1S(=O)(=O)N1CCCCC1)S(=O)(=O)NC(C1CCCC1)N2 (centres unmarked) [Compound 114, 3-Cyclopentyl-6-methyl-7-piperidinosulfonyl-1,2,3,4-tetrahydro-1,2,4-benzothia-diazine-1,1-dioxide]	reversible	–	–	potentiated	concentration-dependent
